Assays:
γδ T cells [1] = experiment: Expansion of γδ T cell population using pamidronate in Yssel's medium (Example 4); type: cell-based; conditions: human PBMCs, stimulant pamidronate 5 μM, IL-2 100 U/mL, immobilized FN fragment, day 14
Description: The expansion of a γδ T cell population was carried out in the same manner as in Example 2-(1), provided that as a basal medium for culture, a medium prepared originally by the applicant having the same composition as an Yssel's medium (hereinafter referred to as “Yssel's medium”) was used in place of IMDM, and that on the fifth day from the initiation of culture, 1 mL of an Yssel's medium containing 10% (v/v) human AB serum was added to each well, to dilute the cell suspension.
The ratio of γδ T cells was analyzed according to flow cytometry for PBMCs prepared in Example 1-(1) and the cells on the fourteenth day from the initiation of culture prepared in Example 4-(1), in the same manner as in Example 1-(4). As a result, the ratio of the γδ T cells was 8.9% for the PBMCs, and the ratio was from 89.7 to 94.3% for the cells on the fourteenth day from the initiation of culture.
(§1) The number of live cells was counted according to trypan blue staining method for the cells on the fourteenth day from the initiation of culture prepared in Example 4-(1). The expansion fold of γδ T cells was calculated in comparison of the counted number with the number of γδ T cells at the initiation of culture, in the same manner as in Example 1-(5).

γδ T cells [2] = experiment: Expansion of γδ T cell population cultured using pamidronate (Example 2); type: cell-based; conditions: human PBMCs; IMDM; stimulant pamidronate 5 μM; IL-2 100 U/mL; immobilized FN fragment; day 14
Description: PBMCs prepared in Example 1-(1) were suspended in IMDM containing 0.25% (w/v) HSA, so as to have a concentration of 2×10^6 cells/mL, to prepare a cell suspension. Thereafter, the above-mentioned cell suspension was added to a plate to which nothing was immobilized or a plate immobilized with H296-H296, prepared in Example 1-(2), in a volume of 1 mL/well each. Pamidronate was added to each well so as to have a final concentration of 5 μM. These plates were incubated at 37° C. in 5% CO2 (zeroth day of culture). On the second day from the initiation of culture, IL-2 was added to each well so as to have a final concentration of 100 U/mL. […]
The ratio of γδ T cells was analyzed according to flow cytometry for PBMCs prepared in Example 1-(1) and the cells on the fourteenth day from the initiation of culture prepared in Example 2-(1), in the same manner as in Example 1-(4). […]
as §1, with “2-(1).” for “4-(1).”

CH-296: polypeptide comprising a cell binding domain, a heparin binding domain and a CS-1 domain of fibronectin (SEQ ID NO: 13)
Expansion Fold of γδ T Cells (Folds) Fourteenth Day of Culture (γδ T cells [1]): ×101.4 Folds

B1: H296-H296: modified fibronectin fragment in which two H-296's are connected to each other (SEQ ID NO: 22) (protein)
chain: AIPAPTDLKFTQVTPTSLSAQWTPPNVQLTGYRVRVTPKEKTGPMKEINLAPDSSSVVVSGLMVATKYEVSVYALKDTLTSRPAQGVVTTLENVSPPRRARVTDATETTITISWRTKTETITGFQVDAVPANGQTPIQRTIKPDVRSYTITGLQPGTDYKIYLYTLNDNARSSPVVIDASTAIDAPSNLRFLATTPNSLLVSWQPPRARITGYIIKYEKPGSPPREVVPRPRPGVTEATITGLEPGTEYTIYVIALKNNQKSEPLIGRKKTDELPQLVTLPHPNLHGPEILDVPSTAMAIPAPTDLKFTQVTPTSLSAQWTPPNVQLTGYRVRVTPKEKTGPMKEINLAPDSSSVVVSGLMVATKYEVSVYALKDTLTSRPAQGVVTTLENVSPPRRARVTDATETTITISWRTKTETITGFQVDAVPANGQTPIQRTIKPDVRSYTITGLQPGTDYKIYLYTLNDNARSSPVVIDASTAIDAPSNLRFLATTPNSLLVSWQPPRARITGYIIKYEKPGSPPREVVPRPRPGVTEATITGLEPGTEYTIYVIALKNNQKSEPLIGRKKTDELPQLVTLPHPNLHGPEILDVPST
modifications: Fibronectin fragment named H296-H296
Expansion Fold of γδ T Cells (Folds) Fourteenth Day of Culture (γδ T cells [2]): ×101.8 Folds
